Activity calls are given as the source filed them. No rule for the calls is given here.
System: rodent lifetime carcinogenesis bioassay, tumor incidence TD50
Assay: carcinogenic potency in animals, long-term in vivo studies, CPDB compilation (AID 1745844)

Compound `Cc1ccc(N=C=O)cc1N=C=O` has a TD50 (mouse, strain B6C3F1, females, by gavage, site: abdominal cavity + liver + ovary + spleen + subcutaneous tissue, lesion: hemangiosarcoma + hemangioma, dosed 105 weeks, study length 107 weeks) of 580 mg/kg/day, a TD50 (mouse, strain B6C3F1, females, by gavage, site: abdominal cavity + liver + ovary + spleen + subcutaneous tissue, lesion: hemangiosarcoma + hepatocellular adenoma + hemangioma, dosed 105 weeks, study length 107 weeks) of 181 mg/kg/day and a TD50 (mouse, strain B6C3F1, females, by gavage, site: abdominal cavity + liver + ovary, lesion: hemangiosarcoma, dosed 105 weeks, study length 107 weeks) of 1200 mg/kg/day. It also gave a TD50 (mouse, strain B6C3F1, females, by gavage, site: any site (literature study), lesion: several types, types named in the paper, dosed 105 weeks, study length 107 weeks) of 305 mg/kg/day, a TD50 (mouse, strain B6C3F1, females, by gavage, site: liver, lesion: hepatocellular adenoma + hepatocellular carcinoma + neoplastic nodule, dosed 105 weeks, study length 107 weeks) of 215 mg/kg/day and a TD50 (mouse, strain B6C3F1, females, by gavage, site: liver, lesion: hepatocellular adenoma + hepatocellular carcinoma, dosed 105 weeks, study length 107 weeks) of 215 mg/kg/day. For the same compound, the TD50 (mouse, strain B6C3F1, females, by gavage, site: liver, lesion: hepatocellular adenoma, dosed 105 weeks, study length 107 weeks) was 250 mg/kg/day, the TD50 (mouse, strain B6C3F1, females, by gavage, site: lung, lesion: alveolar/bronchiolar adenoma + alveolar/bronchiolar carcinoma, dosed 105 weeks, study length 107 weeks) was 815 mg/kg/day and the TD50 (mouse, strain B6C3F1, males, by gavage, site: any site (literature study), lesion: several types, types named in the paper, dosed 105 weeks, study length 107 weeks) was 253 mg/kg/day (inactive). The TD50 (mouse, strain B6C3F1, males, by gavage, site: lung, lesion: alveolar/bronchiolar adenoma + alveolar/bronchiolar carcinoma, dosed 105 weeks, study length 107 weeks) was 1920 mg/kg/day, the carcinogen call (mouse, strain Charles River CD1, females, inhaled, site: any site (literature study), lesion: benign tumor, dosed 104 weeks, study length 104 weeks) was “negative (inactive)” and the carcinogen call (mouse, strain Charles River CD1, females, inhaled, site: any site (literature study), lesion: malignant tumor, dosed 104 weeks, study length 104 weeks) was “negative (inactive)”. The carcinogen call (mouse, strain Charles River CD1, females, inhaled, site: any site (literature study), lesion: several types, types named in the paper, dosed 104 weeks, study length 104 weeks) was “negative (inactive)”, the carcinogen call (mouse, strain Charles River CD1, females, inhaled, site: liver, lesion: hepatocellular adenoma, dosed 104 weeks, study length 104 weeks) was “negative (inactive)” and the carcinogen call (mouse, strain Charles River CD1, females, inhaled, site: liver, lesion: hepatocellular carcinoma, dosed 104 weeks, study length 104 weeks) was “negative (inactive)”. For the same compound, the carcinogen call (mouse, strain Charles River CD1, females, inhaled, site: lung, lesion: adenoma, dosed 104 weeks, study length 104 weeks) was “negative (inactive)”, the carcinogen call (mouse, strain Charles River CD1, females, inhaled, site: lung, lesion: carcinoma, dosed 104 weeks, study length 104 weeks) was “negative (inactive)” and the carcinogen call (mouse, strain Charles River CD1, males, inhaled, site: any site (literature study), lesion: benign tumor, dosed 104 weeks, study length 104 weeks) was “negative (inactive)”. The carcinogen call (mouse, strain Charles River CD1, males, inhaled, site: any site (literature study), lesion: malignant tumor, dosed 104 weeks, study length 104 weeks) was “negative (inactive)”, the TD50 (mouse, strain Charles River CD1, males, inhaled, site: any site (literature study), lesion: several types, types named in the paper, dosed 104 weeks, study length 104 weeks) was 1.63 mg/kg/day (inactive) and the carcinogen call (mouse, strain Charles River CD1, males, inhaled, site: liver, lesion: hepatocellular adenoma, dosed 104 weeks, study length 104 weeks) was “negative (inactive)”. For the same compound, the carcinogen call (mouse, strain Charles River CD1, males, inhaled, site: liver, lesion: hepatocellular carcinoma, dosed 104 weeks, study length 104 weeks) was “negative (inactive)”, the TD50 (mouse, strain Charles River CD1, males, inhaled, site: lung, lesion: adenoma, dosed 104 weeks, study length 104 weeks) was 0.3 mg/kg/day (inactive) and the carcinogen call (mouse, strain Charles River CD1, males, inhaled, site: lung, lesion: carcinoma, dosed 104 weeks, study length 104 weeks) was “negative (inactive)”. For the same compound, the carcinogen call (rat, strain Charles River CD (Sprague-Dawley), females, inhaled, site: any site (literature study), lesion: benign tumor, dosed 108 weeks, study length 108 weeks) was “negative (inactive)”, the TD50 (rat, strain Charles River CD (Sprague-Dawley), females, inhaled, site: any site (literature study), lesion: malignant tumor, dosed 108 weeks, study length 108 weeks) was 1.09 mg/kg/day (inactive) and the carcinogen call (rat, strain Charles River CD (Sprague-Dawley), females, inhaled, site: any site (literature study), lesion: several types, types named in the paper, dosed 108 weeks, study length 108 weeks) was “negative (inactive)”. The TD50 (rat, strain Charles River CD (Sprague-Dawley), females, inhaled, site: liver, lesion: hepatocellular carcinoma, dosed 108 weeks, study length 108 weeks) was 8.24 mg/kg/day (inactive), the carcinogen call (rat, strain Charles River CD (Sprague-Dawley), males, inhaled, site: any site (literature study), lesion: benign tumor, dosed 110 weeks, study length 110 weeks) was “negative (inactive)” and the TD50 (rat, strain Charles River CD (Sprague-Dawley), males, inhaled, site: any site (literature study), lesion: malignant tumor, dosed 110 weeks, study length 110 weeks) was 6.18 mg/kg/day (inactive). The carcinogen call (rat, strain Charles River CD (Sprague-Dawley), males, inhaled, site: any site (literature study), lesion: several types, types named in the paper, dosed 110 weeks, study length 110 weeks) was “negative (inactive)”, the carcinogen call (rat, strain Charles River CD (Sprague-Dawley), males, inhaled, site: liver, lesion: hepatocellular carcinoma, dosed 110 weeks, study length 110 weeks) was “negative (inactive)” and the TD50 (rat, strain Fischer 344, females, by gavage, site: adrenal gland, lesion: cortical adenoma, dosed 106 weeks, study length 108 weeks) was 174 mg/kg/day. The TD50 (rat, strain Fischer 344, females, by gavage, site: adrenal gland, lesion: pheochromocytoma, dosed 106 weeks, study length 108 weeks) was 143 mg/kg/day, the TD50 (rat, strain Fischer 344, females, by gavage, site: any site (literature study), lesion: several types, types named in the paper, dosed 106 weeks, study length 108 weeks) was 25.1 mg/kg/day and the TD50 (rat, strain Fischer 344, females, by gavage, site: clitoral gland, lesion: adenoma, NOS, dosed 106 weeks, study length 108 weeks) was 260 mg/kg/day. It also gave a TD50 (rat, strain Fischer 344, females, by gavage, site: liver + mammary gland + pancreatic islets + subcutaneous tissue, lesion: neoplastic nodule + fibroadenoma + islet-cell adenoma + fibrosarcoma + fibroma, dosed 106 weeks, study length 108 weeks) of 25.4 mg/kg/day, a TD50 (rat, strain Fischer 344, females, by gavage, site: liver, lesion: hepatocellular adenoma + hepatocellular carcinoma + neoplastic nodule, dosed 106 weeks, study length 108 weeks) of 92.2 mg/kg/day and a TD50 (rat, strain Fischer 344, females, by gavage, site: liver, lesion: neoplastic nodule, dosed 106 weeks, study length 108 weeks) of 92.2 mg/kg/day. For the same compound, the TD50 (rat, strain Fischer 344, females, by gavage, site: mammary gland, lesion: fibroadenoma, dosed 106 weeks, study length 108 weeks) was 33.4 mg/kg/day, the TD50 (rat, strain Fischer 344, females, by gavage, site: pancreatic islets, lesion: islet-cell adenoma + islet-cell carcinoma, dosed 106 weeks, study length 108 weeks) was 115 mg/kg/day and the TD50 (rat, strain Fischer 344, females, by gavage, site: pancreatic islets, lesion: islet-cell adenoma, dosed 106 weeks, study length 108 weeks) was 135 mg/kg/day. It also gave a TD50 (rat, strain Fischer 344, females, by gavage, site: pituitary gland, lesion: chromophobe adenoma + chromophobe carcinoma, dosed 106 weeks, study length 108 weeks) of 86.9 mg/kg/day, a TD50 (rat, strain Fischer 344, females, by gavage, site: pituitary gland, lesion: chromophobe adenoma, dosed 106 weeks, study length 108 weeks) of 77.3 mg/kg/day and a TD50 (rat, strain Fischer 344, females, by gavage, site: subcutaneous tissue, lesion: fibroma, dosed 106 weeks, study length 108 weeks) of 256 mg/kg/day. The TD50 (rat, strain Fischer 344, females, by gavage, site: subcutaneous tissue, lesion: fibrosarcoma + fibroma, dosed 106 weeks, study length 108 weeks) was 206 mg/kg/day, the TD50 (rat, strain Fischer 344, males, by gavage, site: any site (literature study), lesion: several types, types named in the paper, dosed 106 weeks, study length 108 weeks) was 18.4 mg/kg/day and the TD50 (rat, strain Fischer 344, males, by gavage, site: liver, lesion: hepatocellular adenoma + hepatocellular carcinoma + neoplastic nodule, dosed 106 weeks, study length 108 weeks) was 196 mg/kg/day. For the same compound, the TD50 (rat, strain Fischer 344, males, by gavage, site: pancreas + subcutaneous tissue, lesion: acinar-cell adenoma + fibrosarcoma + fibroma, dosed 106 weeks, study length 108 weeks) was 27.3 mg/kg/day, the TD50 (rat, strain Fischer 344, males, by gavage, site: pancreas, lesion: acinar-cell adenoma, dosed 106 weeks, study length 108 weeks) was 51.6 mg/kg/day and the TD50 (rat, strain Fischer 344, males, by gavage, site: pancreatic islets, lesion: islet-cell adenoma + islet-cell carcinoma, dosed 106 weeks, study length 108 weeks) was 201 mg/kg/day. For the same compound, the TD50 (rat, strain Fischer 344, males, by gavage, site: pituitary gland, lesion: chromophobe adenoma + chromophobe carcinoma, dosed 106 weeks, study length 108 weeks) was 83.7 mg/kg/day, the TD50 (rat, strain Fischer 344, males, by gavage, site: pituitary gland, lesion: chromophobe adenoma, dosed 106 weeks, study length 108 weeks) was 76.4 mg/kg/day and the TD50 (rat, strain Fischer 344, males, by gavage, site: subcutaneous tissue, lesion: fibroma, dosed 106 weeks, study length 108 weeks) was 56 mg/kg/day. The TD50 (rat, strain Fischer 344, males, by gavage, site: subcutaneous tissue, lesion: fibrosarcoma + fibroma, dosed 106 weeks, study length 108 weeks) was 34.1 mg/kg/day, the TD50 (rat, strain Fischer 344, males, by gavage, site: subcutaneous tissue, lesion: fibrosarcoma + osteosarcoma + sarcoma, NOS, dosed 106 weeks, study length 108 weeks) was 103 mg/kg/day and the TD50 (rat, strain Fischer 344, males, by gavage, site: subcutaneous tissue, lesion: fibrosarcoma, dosed 106 weeks, study length 108 weeks) was 92.4 mg/kg/day. It also gave a TD50 (rat, strain Fischer 344, males, by gavage, site: testis, lesion: interstitial-cell tumor + interstitial-cell tumor, malignant, dosed 106 weeks, study length 108 weeks) of 13.6 mg/kg/day.

In the case of `CN(CCCC(=O)O)N=O`, the TD50 (rat, strain F344/DuCrj, males, in drinking water, site: urinary bladder/ureter, lesion: several types, types named in the paper, dosed 40 weeks, study length 78 weeks) is reported as 0.982 mg/kg/day and the TD50 (rat, strain F344/DuCrj, males, in drinking water, site: urinary bladder/ureter, lesion: transitional-cell carcinoma, dosed 40 weeks, study length 78 weeks) is reported as 4.23 mg/kg/day.

For `CCCc1cc(=O)[nH]c(=S)[nH]1`, the TD50 (mouse, strain C57BL, both sexes, in feed, site: pituitary gland, lesion: adenoma, dosed 73 weeks, study length 73 weeks) was 409 mg/kg/day, the TD50 (rat, strain Long-Evans, males, in feed, site: thyroid gland, lesion: adenoma, dosed 52 weeks, study length 52 weeks) was 10.3 mg/kg/day and the TD50 (rat, strain Wistar albino, females, in drinking water, site: thyroid gland, lesion: adenoma, dosed 78 weeks, study length 78 weeks) was 15.8 mg/kg/day. For the same compound, the TD50 (rat, strain Wistar albino, females, in drinking water, site: thyroid gland, lesion: carcinoma, dosed 78 weeks, study length 78 weeks) was 115 mg/kg/day, the TD50 (rat, strain Wistar albino, males, in drinking water, site: thyroid gland, lesion: adenoma, dosed 78 weeks, study length 78 weeks) was 17.2 mg/kg/day and the TD50 (rat, strain Wistar albino, males, in drinking water, site: thyroid gland, lesion: carcinoma, dosed 78 weeks, study length 78 weeks) was 79.3 mg/kg/day. The carcinogen call (rat, strain Wistar, males, in drinking water, site: thyroid gland, lesion: adenoma, dosed 26 weeks, study length 104 weeks) was “negative (inactive)”.

For `CC(C)CCCCCOC(=O)COc1ccc(Cl)cc1Cl`, the carcinogen call (mouse, strain B6AKF1, females, oral dosing, site: any site (literature study), lesion: several types, types named in the paper, dosed 76 weeks, study length 76 weeks) was “negative (inactive)”, the carcinogen call (mouse, strain B6AKF1, females, oral dosing, site: liver, lesion: hepatoma, dosed 76 weeks, study length 76 weeks) was “negative (inactive)” and the carcinogen call (mouse, strain B6AKF1, females, oral dosing, site: lung, lesion: adenoma, dosed 76 weeks, study length 76 weeks) was “negative (inactive)”. For the same compound, the carcinogen call (mouse, strain B6AKF1, males, oral dosing, site: any site (literature study), lesion: several types, types named in the paper, dosed 76 weeks, study length 76 weeks) was “negative (inactive)”, the carcinogen call (mouse, strain B6AKF1, males, oral dosing, site: liver, lesion: hepatoma, dosed 76 weeks, study length 76 weeks) was “negative (inactive)” and the carcinogen call (mouse, strain B6AKF1, males, oral dosing, site: lung, lesion: several types, types named in the paper, dosed 76 weeks, study length 76 weeks) was “negative (inactive)”. The TD50 (mouse, strain B6C3F1, females, oral dosing, site: any site (literature study), lesion: several types, types named in the paper, dosed 76 weeks, study length 76 weeks) was 24.6 mg/kg/day (inactive), the carcinogen call (mouse, strain B6C3F1, females, oral dosing, site: liver, lesion: hepatoma, dosed 76 weeks, study length 76 weeks) was “negative (inactive)” and the TD50 (mouse, strain B6C3F1, females, oral dosing, site: lung, lesion: adenoma, dosed 76 weeks, study length 76 weeks) was 34 mg/kg/day (inactive). The TD50 (mouse, strain B6C3F1, males, oral dosing, site: any site (literature study), lesion: several types, types named in the paper, dosed 76 weeks, study length 76 weeks) was 17.7 mg/kg/day (inactive), the TD50 (mouse, strain B6C3F1, males, oral dosing, site: liver, lesion: hepatoma, dosed 76 weeks, study length 76 weeks) was 31.7 mg/kg/day (inactive) and the carcinogen call (mouse, strain B6C3F1, males, oral dosing, site: lung, lesion: several types, types named in the paper, dosed 76 weeks, study length 76 weeks) was “negative (inactive)”.

Reference: PubChem BioAssay AID1745844 (Carcinogenic Potency Database (CPDB), 2022)
